# Reference: US11453640B2, “Small molecules for disrupting the super elongation complex and inhibiting transcription elongation for cancer therapy” (NORTHWESTERN UNIVERSITY, priority 2018, dated 2022)
# Assays:
# [1] = test system: SEC subunits AFF1, AFF4, ELL2, CCNT1 and CDK9 mRNA; assay: RNA-seq of SEC subunit mRNA expression in HEK293T cells; assay type: cell-based, human; details: 20 μM, 12 hr
# Description: FIG. 8, related to FIG. 1. Peptidomimetic identification of disruptors of the AFF4-CCNT1 interaction within the Super Elongation Complex. (A) Schematic of AlphaLISA assay of the AFF4-CCNT1 interaction. Anti-GST AlphaLISA acceptor beads and AlphaScreen streptavidin donor beads (Perkin Elmer) were used to detect the interaction of GST-CCNT1 (AA1-300) and biotin-AFF4 (AA32-67). (B-C) Optimization of the AlphaLISA assay with various biotin-AFF4 peptide and GST-CCNT1 concentrations. No CCNT1 (B) and mutant AFF4 (C) were used as negative controls. Data are represented as Mean+/−SD. (D) Scheme for chemical synthesis of SEC inhibitors KL-1 and KL-2. Reagents and conditions: a. LDA, THF, −78° C., 15 min., then diethyl oxalate, −78° C. to room temperature. b. […] 293T cells were treated with 20 μM of KL-1 or KL-2 for 6 hr, and the protein levels of BRD2, BRD4, Pol II (RPB1), SPT5, MED26, MYC, HSP90 (load control) and Tubulin (load control) were measured by western blotting. […] HCT-116 cells were treated with 20 μM of KL-1 or KL-2 for 6 hr, and the protein levels of AFF1, AFF4, CCNT1, CDK9 and Tubulin (load control) were determined by western blotting. […] The log2CPM (counts per million) of the SEC subunits were calculated with HTseq. […]
# RNA-seq Analysis. […] Exonic reads were assigned to specific genes from Ensembl release 75 using Bioconductor package GenomicRanges countOverlaps. […]
# [2] = test system: SEC components AFF1 and AFF4; assay: Western blotting of SEC and P-TEFb component protein levels in treated cells; assay type: cell-based, human; details: HEK293T and HCT-116 cells, 20 μM, 6 hr
# Description: FIG. 1. Peptidomimetic identification of disruptors of the AFF4-CCNT1 interaction within the Super Elongation Complex. (A) Schematic for the identification of small molecule inhibitors of the AFF4-CCNT1 interaction using in silico high-throughput screening. Compounds from the ZINC database were docked with the AFF4-CCNT1 structure (4IMY) using a three-tier glide-docking algorithm, which led to 40 candidates. Residues forming the deep binding pocket of CCNT1 are labeled orange and residues of the AFF4 peptide are labeled red. (B) Validation screening identified KL-1 as a potential SEC disruptor using AlphaLISA screening. […] The Ki constants of both compounds were measured with the AlphaLISA assays. […] 5 μl, 10 and 20 μl cell lysates were loaded and the protein levels of AFF1, AFF4, CCNT1, CDK9 and Tubulin (load control) were determined by western blotting.
# FIG. 8, related to FIG. 1. […] 293T cells were treated with 20 μM of KL-1 or KL-2 for 6 hr, and the protein levels of BRD2, BRD4, Pol II (RPB1), SPT5, MED26, MYC, HSP90 (load control) and Tubulin (load control) were measured by western blotting. […] HCT-116 cells were treated with 20 μM of KL-1 or KL-2 for 6 hr, and the protein levels of AFF1, AFF4, CCNT1, CDK9 and Tubulin (load control) were determined by western blotting. […] The log2CPM (counts per million) of the SEC subunits were calculated with HTseq. […]
structure (smiles),measurement,setting,value
"COc1cccc(C(=O)CC(=O)C(=O)Nc2cc(Cl)ccc2C)c1 [KL-1, N-(5-chloro-2-methylphenyl)-4-oxo-4-(3-methoxyphenyl)-2-oxobutanamide]",mRNA levels of SEC components,[1],do not result in decreased mRNA levels of SEC components
same,"protein levels of CCNT1, CDK9, Pol II, BRD2 and BRD4",[2],no major effect
same,protein levels of SEC components AFF1 and AFF4,[2],led to depletion of SEC components AFF1 and AFF4
